Literature values in patent US20050002974A1, “Itch-relieving cosmetic or dermatological preparation” (Beiersdorf AG, priority 2002, published 2005).

Key:
[1] = rubbed into the skin
[2] = used in aqueous solutions

Compound | feel on the skin [1] | local anesthetic properties [2]
CC1CCC(C(C)C)C(O)C1 (centres unmarked) [menthol, Menthol] | pleasant cooling feel | –
polyethylene glycol (9) monododecyl ether [polidocanol] | – | strong local anesthetic properties
